The values that follow come from paper PMC9945863, “Pyridine based dual binding site aromatase (CYP19A1) inhibitors” (RSC Medicinal Chemistry, 2023).

One series concerns the target T1, Aromatase (CYP19A1) (Homo sapiens, UniProt P11511).
T1 construct: placental choriocarcinoma JEG-3 cells, known to have high aromatase activity; host or cells: JEG-3
T1 sequence (P11511 1-503): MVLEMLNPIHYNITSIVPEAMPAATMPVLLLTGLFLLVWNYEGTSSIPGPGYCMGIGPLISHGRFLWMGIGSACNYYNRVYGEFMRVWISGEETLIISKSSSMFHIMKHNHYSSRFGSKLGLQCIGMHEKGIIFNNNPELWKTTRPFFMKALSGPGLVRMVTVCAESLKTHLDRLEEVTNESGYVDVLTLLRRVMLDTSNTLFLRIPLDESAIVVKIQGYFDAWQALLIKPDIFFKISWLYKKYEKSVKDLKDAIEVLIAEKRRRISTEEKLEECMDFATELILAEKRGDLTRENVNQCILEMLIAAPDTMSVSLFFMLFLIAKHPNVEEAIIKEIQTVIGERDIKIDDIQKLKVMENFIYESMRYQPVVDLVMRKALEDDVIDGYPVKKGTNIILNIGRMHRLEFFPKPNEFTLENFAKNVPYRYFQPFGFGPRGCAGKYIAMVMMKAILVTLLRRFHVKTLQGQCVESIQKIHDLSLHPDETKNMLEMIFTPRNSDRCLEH
The series can be described thus: Aromatase activity, modified tritiated water assay in JEG-3 cells. The class given is cell-based. The procedure:
Briefly, placental choriocarcinoma JEG-3 cells, known to have high aromatase activity, were grown to approximately 80% confluence in six-well culture plates. Once established, cells were treated with androst-4-ene-3,17-dione[1β-^3H] as aromatase substrate. Aromatase activity was measured in the absence and presence of inhibitors (Fig. 3).
Aromatase activity results were determined as a concentration of product formed per mg of protein per hour.
Aromatase activity was assayed using a modified tritiated water assay as previously reported.[12] JEG-3 cells were grown in 1 mL EMEM to approximately 80% confluence in six-well cell culture plates. Androst-4-ene-3,17-dione[1β-^3H] was dissolved in serum-free cell culture medium and added into each well. Aromatase activity was measured in the absence and presence of inhibitor (0.001–10 nM). After a 1 h incubation at 37 °C followed by a 5 min incubation on ice, 500 μL of culture medium was taken from each well. Medium was vortexed with 2% dextran-treated charcoal (Sigma-Aldrich) in PBS and centrifuged at 4000 rpm. The supernatant containing the product, [^3H] H2O, was quantified by scintillation counting. Cell protein concentrations were determined using Pierce BCA assay kit (Thermo Fisher Scientific). Aromatase activity results were determined as a concentration of product formed per mg of protein per hour (pmol mg^−1 h^−1).

Series [1] concerns the target T2, CYP2C9 (relative to CYP19A1) (Homo sapiens, UniProt P11712).
T2 construct: using a human liver microsomal assay with a CYP isoform specific probe substrate; tissue Cyprotex Discovery Limited; host or cells: human liver microsomes
The series can be described thus: CYP panel inhibition, human liver microsomal assay (Cyprotex). The class given is in vitro ADME. As to conditions: human, human liver microsomes; ratio of CYP IC50 to CYP19A1 IC50; read-out: Selectivity CYP19A1 compared with CYP2C9. In general terms: Liver microsomes are a subcellular fraction often used to study metabolism.

The target in series [2] is T3, CYP2C9 (Homo sapiens, UniProt P11712).
T3 construct: tissue Cyprotex Discovery Limited; host or cells: human liver microsomes
T3 sequence (P11712 whole entry): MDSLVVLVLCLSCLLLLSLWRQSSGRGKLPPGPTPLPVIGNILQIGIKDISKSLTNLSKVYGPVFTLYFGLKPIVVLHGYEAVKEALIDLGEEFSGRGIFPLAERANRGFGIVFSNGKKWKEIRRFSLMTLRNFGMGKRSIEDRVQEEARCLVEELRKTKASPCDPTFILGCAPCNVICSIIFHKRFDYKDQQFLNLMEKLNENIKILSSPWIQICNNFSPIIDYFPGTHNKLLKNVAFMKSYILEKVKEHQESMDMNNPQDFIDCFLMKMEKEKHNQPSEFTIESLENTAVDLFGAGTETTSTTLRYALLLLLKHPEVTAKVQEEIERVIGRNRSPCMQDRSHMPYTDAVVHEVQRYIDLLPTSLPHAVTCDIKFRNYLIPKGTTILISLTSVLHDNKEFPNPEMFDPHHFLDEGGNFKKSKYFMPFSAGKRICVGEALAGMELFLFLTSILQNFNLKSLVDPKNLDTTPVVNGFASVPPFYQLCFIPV
The description is as above. The class given is in vitro ADME. As to conditions: human liver microsomes, isoform specific probe substrate.

For series [3], the target named is CYP2D6 (relative to CYP19A1) (Homo sapiens, UniProt P10635). Description: in vitro. As to conditions: Selectivity CYP19A1 compared with CYP2D6, ratio of CYP IC50 to CYP19A1 IC50.
Sequence of CYP2D6 (relative to CYP19A1) (P10635 whole entry, canonical isoform): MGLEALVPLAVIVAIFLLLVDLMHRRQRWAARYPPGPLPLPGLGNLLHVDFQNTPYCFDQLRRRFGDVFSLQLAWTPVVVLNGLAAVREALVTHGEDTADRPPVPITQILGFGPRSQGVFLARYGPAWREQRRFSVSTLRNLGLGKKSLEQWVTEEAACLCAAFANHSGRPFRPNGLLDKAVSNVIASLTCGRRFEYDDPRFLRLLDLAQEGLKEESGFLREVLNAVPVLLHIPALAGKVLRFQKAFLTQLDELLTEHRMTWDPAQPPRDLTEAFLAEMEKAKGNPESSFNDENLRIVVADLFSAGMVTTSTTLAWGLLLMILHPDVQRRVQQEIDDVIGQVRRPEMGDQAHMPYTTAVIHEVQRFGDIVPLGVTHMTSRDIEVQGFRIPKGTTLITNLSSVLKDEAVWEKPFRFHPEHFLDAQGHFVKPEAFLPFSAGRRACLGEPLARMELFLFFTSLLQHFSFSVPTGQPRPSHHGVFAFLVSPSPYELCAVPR
A further series has as its target CYP2D6 (Homo sapiens, UniProt P10635). Description: CYP panel inhibition, human liver microsomal assay (Cyprotex). As to conditions: read-out: CYP2D6 IC50; human liver microsomes, isoform specific probe substrate.
In series [4] the target is T4, CYP1A2 (relative to CYP19A1) (Homo sapiens, UniProt P05177).
T4 construct: using a human liver microsomal assay with a CYP isoform specific probe substrate; tissue Cyprotex Discovery Limited; host or cells: human liver microsomes
T4 sequence (P05177 1-516): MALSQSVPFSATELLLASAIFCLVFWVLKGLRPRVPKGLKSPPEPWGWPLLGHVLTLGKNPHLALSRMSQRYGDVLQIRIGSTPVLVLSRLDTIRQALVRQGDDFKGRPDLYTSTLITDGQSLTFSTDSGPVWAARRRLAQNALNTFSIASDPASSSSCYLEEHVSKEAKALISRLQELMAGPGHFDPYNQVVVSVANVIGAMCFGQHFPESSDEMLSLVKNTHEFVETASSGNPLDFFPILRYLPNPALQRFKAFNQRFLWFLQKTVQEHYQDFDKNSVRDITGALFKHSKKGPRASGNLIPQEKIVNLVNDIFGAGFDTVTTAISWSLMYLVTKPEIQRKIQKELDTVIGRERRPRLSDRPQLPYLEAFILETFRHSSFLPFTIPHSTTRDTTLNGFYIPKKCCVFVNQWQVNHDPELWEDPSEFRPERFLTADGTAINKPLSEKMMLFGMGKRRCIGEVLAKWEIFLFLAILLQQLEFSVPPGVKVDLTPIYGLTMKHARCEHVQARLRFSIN
The description is as above. The class given is in vitro ADME. As to conditions: human, human liver microsomes; ratio of CYP IC50 to CYP19A1 IC50; read-out: Selectivity CYP19A1 compared with CYP1A2.

The target of series [5] is T5, CYP1A2 (Homo sapiens, UniProt P05177).
T5 construct: using a human liver microsomal assay with a CYP isoform specific probe substrate; tissue Cyprotex Discovery Limited; host or cells: human liver microsomes
T5 sequence (P05177 1-516): T4 sequence (P05177 1-516)
The series is described as above. The format is in vitro ADME. As to conditions: human liver microsomes, isoform specific probe substrate.

Series [6] concerns the target T6, CYP2C19 (relative to CYP19A1) (Homo sapiens, UniProt P33261).
T6 construct: using a human liver microsomal assay with a CYP isoform specific probe substrate; tissue Cyprotex Discovery Limited; host or cells: human liver microsomes
The series is described as above. As to conditions: human, human liver microsomes; ratio of CYP IC50 to CYP19A1 IC50; read-out: Selectivity CYP19A1 compared with CYP2C19. The class given is in vitro ADME.

Series [7] deals with T7, CYP2C19 (Homo sapiens, UniProt P33261).
T7 construct: using a human liver microsomal assay with a CYP isoform specific probe substrate; tissue Cyprotex Discovery Limited; host or cells: human liver microsomes
T7 sequence (P33261 whole entry, canonical isoform): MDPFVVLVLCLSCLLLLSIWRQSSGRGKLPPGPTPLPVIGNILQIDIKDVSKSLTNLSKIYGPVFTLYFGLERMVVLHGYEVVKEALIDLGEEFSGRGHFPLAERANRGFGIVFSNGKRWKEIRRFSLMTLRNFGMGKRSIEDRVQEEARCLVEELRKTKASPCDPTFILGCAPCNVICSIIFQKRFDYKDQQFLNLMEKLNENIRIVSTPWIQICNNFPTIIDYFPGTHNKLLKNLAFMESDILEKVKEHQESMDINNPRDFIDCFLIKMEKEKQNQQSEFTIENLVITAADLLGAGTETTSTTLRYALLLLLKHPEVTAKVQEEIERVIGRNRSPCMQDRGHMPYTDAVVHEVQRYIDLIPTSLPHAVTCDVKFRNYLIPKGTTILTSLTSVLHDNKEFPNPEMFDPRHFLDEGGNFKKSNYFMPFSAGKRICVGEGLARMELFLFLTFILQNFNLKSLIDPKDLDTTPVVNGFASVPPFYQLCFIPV
Described as above. The class given is in vitro ADME. As to conditions: human liver microsomes, isoform specific probe substrate.

Series [8] addresses T8, CYP3A4 (Homo sapiens, UniProt P08684).
T8 construct: using a human liver microsomal assay with a CYP isoform specific probe substrate; tissue Cyprotex Discovery Limited; host or cells: human liver microsomes
The series is described as above. The class given is in vitro ADME. As to conditions: human liver microsomes, isoform specific probe substrate.

For series [9], the target named is T9, CYP3A4 (relative to CYP19A1) (Homo sapiens, UniProt P08684).
T9 construct: using a human liver microsomal assay with a CYP isoform specific probe substrate; tissue Cyprotex Discovery Limited; host or cells: human liver microsomes
T9 sequence (P08684 whole entry, canonical isoform): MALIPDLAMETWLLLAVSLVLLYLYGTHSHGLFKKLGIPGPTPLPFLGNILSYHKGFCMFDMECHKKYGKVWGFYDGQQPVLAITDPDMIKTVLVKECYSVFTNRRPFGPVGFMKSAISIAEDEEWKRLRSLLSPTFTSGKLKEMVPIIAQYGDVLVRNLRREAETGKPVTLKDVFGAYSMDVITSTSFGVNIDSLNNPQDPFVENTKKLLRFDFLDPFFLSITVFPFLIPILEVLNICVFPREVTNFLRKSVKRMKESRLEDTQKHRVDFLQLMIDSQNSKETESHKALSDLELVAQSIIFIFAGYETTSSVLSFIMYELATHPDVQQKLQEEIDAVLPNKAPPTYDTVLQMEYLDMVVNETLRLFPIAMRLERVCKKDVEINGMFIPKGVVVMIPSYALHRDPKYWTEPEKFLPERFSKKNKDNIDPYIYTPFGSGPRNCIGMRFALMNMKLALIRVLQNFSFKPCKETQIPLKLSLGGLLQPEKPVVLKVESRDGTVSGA
The description is as above. The format is in vitro ADME. As to conditions: human, human liver microsomes; ratio of CYP IC50 to CYP19A1 IC50; read-out: Selectivity CYP19A1 compared with CYP3A4.

A further series has as its system CYP2A6. The arrangement: method as in PMID 19198839, PMID 28977209. As to conditions: cited from earlier work.
Series [10] concerns CYP2C19. The arrangement: method as in PMID 19198839, PMID 28977209. As to conditions: cited from earlier work.
The subject of series [11] is CYP3A4. As to conditions: cited from earlier work.
Series [12] deals with CYP2C9. As to conditions: cited from earlier work.
Series [13] deals with CYP1A2. As to conditions: cited from earlier work.
For series [14] the following is noted: heterocyclic nitrogen basicity; cited from earlier work.
[15] abbreviates: JEG-3 cells, 0.001–10 nM inhibitor, 1 h incubation, triplicates, read-out: CYP19A1 IC50.

Where two headings read alike, the source gives them in different places.

Sequence of CYP2D6 (P10635 whole entry, canonical isoform): as the sequence (P10635 whole entry, canonical isoform) above
T6 sequence (P33261 whole entry, canonical isoform): as the sequence (P33261 whole entry, canonical isoform) above
T8 sequence (P08684 whole entry, canonical isoform): as the sequence (P08684 whole entry, canonical isoform) above
T2 sequence (P11712 whole entry, canonical isoform): as the sequence (P11712 whole entry) above

The IC50 is the concentration that inhibits the measured activity by half. Take `COc1ccc2cc(C(O)(c3ccc(Br)cc3)c3cccnc3)oc2c1` (stereo not drawn) [Compound 4c, (4-Bromophenyl)(6-methoxybenzofuran-2-yl)(pyridin-3-yl)methanol]: the IC50 on Aromatase (CYP19A1) (setting [15]) came to 0.0004 µM.
Still for that read-out and setting: as for `COc1ccc2cc(C(O)(c3cccnc3)c3ccc(Cl)cc3Cl)oc2c1` (stereo not drawn) [Compound 4d, (2′,4′-Dichlorophenyl)(6-methoxybenzofuran-2-yl)(pyridin-3-yl)methanol], the figure is 0.0019 µM; as for `CC#CCOc1ccc2cc(C(O)(c3ccc(F)cc3)c3cccnc3)oc2c1` (stereo not drawn) [Compound 10a, (6-(But-2-yn-1-yloxy)benzofuran-2-yl)(4-fluorophenyl)(pyridin-3-yl)methanol], roughly 0.01 µM; as for `CC#CCOc1ccc2cc(C(O)(c3ccc(Cl)cc3)c3cccnc3)oc2c1` (stereo not drawn) [Compound 10b, (6-(But-2-yn-1-yloxy)benzofuran-2-yl)(4-chlorophenyl)(pyridin-3-yl)methanol], 0.00105 µM.
For the molecule `CC#CCOc1ccc2cc(C(O)(c3ccc(Br)cc3)c3cccnc3)oc2c1` (stereo not drawn) [Compound 10c, (4-Bromophenyl)(6-(but-2-yn-1-yloxy)benzofuran-2-yl)(pyridin-3-yl)methanol], the selectivity ratio is 5900 in series [1]; greater than 30000 in series [3]; greater than 30000 in [4]; 892 in [6]; 4070 in series [9]. For the same molecule, the concentration for half-maximal inhibition (IC50) is 4900 ± 940 nM at CYP2C9 [2]; greater than 25000 nM on CYP2D6; 0.00083 µM on Aromatase (CYP19A1) (CYP19A1 value restated in μM in CYP profile table, read-out: IC50, CYP isoform 19A1); 0.00083 µM at Aromatase (CYP19A1) (setting [15]); greater than 25000 nM against CYP1A2 [5]; 740 ± 160 nM at CYP2C19 [7]. Also, it took 3380 ± 510 nM to reach half-maximal inhibition against CYP3A4 [8] (IC50).
On to `CC#CCOc1ccc2cc(C(O)(c3cccnc3)c3ccc(Cl)cc3Cl)oc2c1` (stereo not drawn) [Compound 10d, (6-(But-2-yn-1-yloxy)benzofuran-2-yl)(2,4-dichlorophenyl)(pyridin-3-yl)methanol], for which, at Aromatase (CYP19A1) (setting [15]), the IC50 is greater than 0.01 µM.
On the same count and under the same terms, as for `CCC#CCOc1ccc2cc(C(O)(c3ccc(F)cc3)c3cccnc3)oc2c1` (stereo not drawn) [Compound 11a, (4-Fluorophenyl)(6-(pent-2-yn-1-yloxy)benzofuran-2-yl)(pyridin-3-yl)methanol], the figure is roughly 0.01 µM.
On the same count and under the same terms, then `CCC#CCOc1ccc2cc(C(O)(c3ccc(Cl)cc3)c3cccnc3)oc2c1` (stereo not drawn) [Compound 11b, (4-Chlorophenyl)(6-(pent-2-yn-1-yloxy)benzofuran-2-yl)(pyridin-3-yl)methanol], with 0.00092 µM; and `CCC#CCOc1ccc2cc(C(O)(c3ccc(Br)cc3)c3cccnc3)oc2c1` (stereo not drawn) [Compound 11c, (4-Bromophenyl)(6-(pent-2-yn-1-yloxy)benzofuran-2-yl)(pyridin-3-yl)methanol], with 0.0049 µM.
The same measure, in the same setting: as for `CCC#CCOc1ccc2cc(C(O)(c3cccnc3)c3ccc(Cl)cc3Cl)oc2c1` (stereo not drawn) [Compound 11d, (2,4-Dichlorophenyl)(6-(pent-2-yn-1-yloxy)benzofuran-2-yl)(pyridin-3-yl)methanol], the figure is greater than 0.01 µM.
For `N#Cc1ccc(C(c2ccc(C#N)cc2)n2cncn2)cc1` [Letrozole], the “inhibition of CYP2A6” value with CYP2A6 was “significant competitive inhibition”. The “inhibition of CYP2C19” value in the series with CYP2C19 [10] is reported as “modest inhibition”.
Consider `CC(C)(C#N)c1cc(Cn2cncn2)cc(C(C)(C)C#N)c1` [anastrozole], for which the “inhibition of CYP3A4” value in the series with CYP3A4 [11] is recorded as “some inhibition”. Further, the “inhibition of CYP2C9” value in the series on CYP2C9 [12] is listed as “some inhibition”. In addition, the “inhibition of CYP1A2” value in the series with CYP1A2 [13] is given as “some inhibition”.
One may read the pKa as the pH at which an ionisable group is half protonated. On to `c1nnn[nH]1` [tetrazole], for which the pKa in series [14] is reported as 4.8.
